According to patent US8841450B2, “Compounds useful as inhibitors of ATR kinase” (Vertex Pharmaceuticals Incorporated, priority 2011, dated 2014):

Target: ATR kinase (Homo sapiens (Human), UniProt Q13535)
Assay: ATR Inhibition Assay (radioactive-phosphate incorporation)
Assay type: biochemical
Conditions: Ki(app); 5 nM full-length ATR, 10 μM [γ-33P]ATP, 800 μM target peptide, 25° C.
Method: Compounds were screened for their ability to inhibit ATR kinase using a radioactive-phosphate incorporation assay. Assays were carried out in a mixture of 50 mM Tris/HCl (pH 7.5), 10 mM MgCl2 and 1 mM DTT. Final substrate concentrations were 10 μM [γ-33P]ATP (3mCi 33P ATP/mmol ATP, Perkin Elmer) and 800 μM target peptide (ASELPASQPQPFSAKKK).
Assays were carried out at 25° C. in the presence of 5 nM full-length ATR. An assay stock buffer solution was prepared containing all of the reagents listed above, with the exception of ATP and the test compound of interest. 13.5 μL of the stock solution was placed in a 96 well plate followed by addition of 2 μL of DMSO stock containing serial dilutions of the test compound (typically starting from a final concentration of 15 μM with 3-fold serial dilutions) in duplicate (final DMSO concentration 7%). The plate was pre-incubated for 10 minutes at 25° C. and the reaction initiated by addition of 15 μL [γ-33P]ATP (final concentration 10 μM).
The reaction was stopped after […] by the addition of 30 μL 0.1M phosphoric acid containing 2 mM ATP. […]
After removing mean background values for all of the data points, Ki(app) data were calculated from non-linear regression analysis of the initial rate data using the Prism software package (GraphPad Prism version 3.0cx for Macintosh, GraphPad Software, San Diego, Calif., USA).

ATR kinase, sequence (Q13535 whole entry): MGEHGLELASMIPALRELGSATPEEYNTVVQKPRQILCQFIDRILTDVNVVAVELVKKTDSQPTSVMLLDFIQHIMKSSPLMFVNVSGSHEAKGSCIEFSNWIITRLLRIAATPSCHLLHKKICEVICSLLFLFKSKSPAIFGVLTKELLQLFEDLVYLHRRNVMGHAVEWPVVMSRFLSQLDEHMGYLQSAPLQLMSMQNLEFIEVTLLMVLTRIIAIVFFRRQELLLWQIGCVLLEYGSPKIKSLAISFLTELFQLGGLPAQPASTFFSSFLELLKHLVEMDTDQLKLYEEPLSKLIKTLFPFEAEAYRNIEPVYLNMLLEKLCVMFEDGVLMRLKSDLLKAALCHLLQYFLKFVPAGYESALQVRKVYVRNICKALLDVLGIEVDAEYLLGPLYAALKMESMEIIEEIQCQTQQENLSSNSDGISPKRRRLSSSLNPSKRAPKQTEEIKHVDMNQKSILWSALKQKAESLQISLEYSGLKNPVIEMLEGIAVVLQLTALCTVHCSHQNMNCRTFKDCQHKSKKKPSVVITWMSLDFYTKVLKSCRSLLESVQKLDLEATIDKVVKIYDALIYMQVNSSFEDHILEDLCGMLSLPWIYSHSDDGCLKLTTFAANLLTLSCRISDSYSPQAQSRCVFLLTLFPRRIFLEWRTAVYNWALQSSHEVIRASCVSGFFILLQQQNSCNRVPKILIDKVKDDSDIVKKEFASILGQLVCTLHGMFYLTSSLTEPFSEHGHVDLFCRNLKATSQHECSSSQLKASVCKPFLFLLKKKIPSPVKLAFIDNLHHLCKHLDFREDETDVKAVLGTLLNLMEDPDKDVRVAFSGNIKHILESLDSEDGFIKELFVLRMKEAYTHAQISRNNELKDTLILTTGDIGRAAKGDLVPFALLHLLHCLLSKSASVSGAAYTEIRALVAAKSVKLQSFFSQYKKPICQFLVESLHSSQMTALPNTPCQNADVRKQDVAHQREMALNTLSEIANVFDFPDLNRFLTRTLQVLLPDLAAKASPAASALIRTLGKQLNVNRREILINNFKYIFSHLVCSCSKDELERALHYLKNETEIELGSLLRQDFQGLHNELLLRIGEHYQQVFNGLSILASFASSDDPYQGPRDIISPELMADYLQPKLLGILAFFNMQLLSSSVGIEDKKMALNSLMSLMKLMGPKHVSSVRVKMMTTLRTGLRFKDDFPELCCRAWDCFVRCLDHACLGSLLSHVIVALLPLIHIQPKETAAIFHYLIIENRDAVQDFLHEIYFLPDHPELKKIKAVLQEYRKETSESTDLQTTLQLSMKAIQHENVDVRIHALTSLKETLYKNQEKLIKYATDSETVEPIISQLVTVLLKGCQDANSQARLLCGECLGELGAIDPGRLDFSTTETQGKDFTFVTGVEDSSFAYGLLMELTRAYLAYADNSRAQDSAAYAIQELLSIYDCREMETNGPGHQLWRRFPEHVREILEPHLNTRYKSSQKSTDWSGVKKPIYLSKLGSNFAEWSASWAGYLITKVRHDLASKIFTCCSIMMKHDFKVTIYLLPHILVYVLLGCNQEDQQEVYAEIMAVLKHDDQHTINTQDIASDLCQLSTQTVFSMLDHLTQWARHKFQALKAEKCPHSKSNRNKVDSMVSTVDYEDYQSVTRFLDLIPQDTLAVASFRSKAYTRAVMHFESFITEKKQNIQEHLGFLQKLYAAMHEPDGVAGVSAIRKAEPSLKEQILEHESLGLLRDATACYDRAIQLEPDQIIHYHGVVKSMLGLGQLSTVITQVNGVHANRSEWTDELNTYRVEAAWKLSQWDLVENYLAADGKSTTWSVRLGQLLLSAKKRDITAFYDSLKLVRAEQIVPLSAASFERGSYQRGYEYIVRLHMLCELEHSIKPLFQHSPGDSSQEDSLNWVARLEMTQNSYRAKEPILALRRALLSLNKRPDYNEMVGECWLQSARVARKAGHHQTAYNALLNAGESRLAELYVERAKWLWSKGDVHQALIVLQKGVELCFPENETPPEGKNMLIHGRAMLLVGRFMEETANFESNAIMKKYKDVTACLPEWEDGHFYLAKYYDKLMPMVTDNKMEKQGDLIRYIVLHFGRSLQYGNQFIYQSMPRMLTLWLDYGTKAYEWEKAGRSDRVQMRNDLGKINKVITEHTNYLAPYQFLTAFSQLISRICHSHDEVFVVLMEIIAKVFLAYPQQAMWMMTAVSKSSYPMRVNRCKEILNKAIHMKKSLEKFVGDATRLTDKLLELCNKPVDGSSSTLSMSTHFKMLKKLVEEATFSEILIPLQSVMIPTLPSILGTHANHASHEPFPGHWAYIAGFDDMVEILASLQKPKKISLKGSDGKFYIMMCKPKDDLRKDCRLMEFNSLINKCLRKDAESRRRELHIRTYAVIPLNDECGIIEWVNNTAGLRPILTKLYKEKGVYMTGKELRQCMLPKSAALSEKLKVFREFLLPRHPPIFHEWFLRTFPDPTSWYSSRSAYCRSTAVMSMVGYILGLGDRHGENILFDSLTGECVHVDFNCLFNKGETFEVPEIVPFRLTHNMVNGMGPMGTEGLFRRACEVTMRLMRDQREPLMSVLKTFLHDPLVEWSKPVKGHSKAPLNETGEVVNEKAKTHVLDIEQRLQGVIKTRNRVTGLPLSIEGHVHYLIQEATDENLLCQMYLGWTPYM

## CC(C)S(=O)(=O)c1ccc(-c2cnc(N)c(C3CC(c4ccccc4)=NO3)n2)cc1 (stereo not shown) [Compound I-1, 5-(4-(isopropylsulfonyl)phenyl)-3-(3-phenyl-4,5-dihydroisoxazol-5-yl)pyrazin-2-amine]
  Ki: 0.016 µM
